Data taken from the NIST ThermoML archive (doi:10.1016/j.jct.2016.12.015).
Numbers after ± are expanded uncertainties.

Settings: 101.33 kPa, Crystal, Small (less than 1 g) adiabatic calorimetry

C[C@H]1C[C@@H]2[C@H]([C@@H](O)C[C@@]3(C)[C@H]2CC[C@]3(O)C(=O)CO)[C@@]2(C)C=CC(=O)C=C12 [Methylprednisolone]
Settings	molar entropy [J/K/mol]
5 K	0.328 ± 0.035
10 K	2.37 ± 0.15
15 K	6.133 ± 0.39
20 K	11.27 ± 0.7
25 K	17.53 ± 0.34
30 K	24.43 ± 0.44
35 K	31.67 ± 0.55
40 K	39.13 ± 0.67
45 K	46.76 ± 0.45
50 K	54.53 ± 0.51
60 K	70.39 ± 0.64
70 K	86.6 ± 0.77
80 K	103 ± 0.9
90 K	119.5 ± 1
100 K	136.1 ± 1.1
110 K	152.7 ± 1.3
120 K	169.2 ± 1.4
130 K	185.7 ± 1.5
140 K	202.1 ± 1.6
150 K	218.5 ± 1.7
160 K	234.8 ± 1.9
170 K	251 ± 2
180 K	267.2 ± 2.1
190 K	283.3 ± 2.2
200 K	299.3 ± 2.3
210 K	315.3 ± 2.4
220 K	331.3 ± 2.6
230 K	347.2 ± 2.7
240 K	363.1 ± 2.8
250 K	379 ± 2.9
260 K	394.8 ± 3
270 K	410.6 ± 3.1
280 K	426.4 ± 3.3
290 K	442.3 ± 3.4
298.15 K	455.2 ± 3.5
300 K	458.1 ± 3.5
310 K	473.9 ± 3.6
320 K	489.8 ± 3.7
330 K	505.6 ± 3.8
340 K	521.4 ± 4
350 K	537.3 ± 4.1
